Results: patent publication CN103301132A, “川芎嗪仲、叔醇类衍生物及其在制药中的应用” (Nanjing University of Chinese Medicine, priority 2013, dated 2013)
Like-named read-outs stand apart in the source and are kept apart here.

How the values were obtained:
[1] = Further study of other liguzinediol derivatives (activity, arrhythmia); conditions: no details given
[2] = target: T1, SERCA2a in cardiomyocytes [心肌细胞内的SERCA2a靶点] (Homo sapiens, UniProt P16615); conditions: mechanism study; cited from earlier work
T1 construct: 心肌细胞内的SERCA2a靶点; endogenous in cells
T1 sequence (P16615 1-997 isoform P16615-2): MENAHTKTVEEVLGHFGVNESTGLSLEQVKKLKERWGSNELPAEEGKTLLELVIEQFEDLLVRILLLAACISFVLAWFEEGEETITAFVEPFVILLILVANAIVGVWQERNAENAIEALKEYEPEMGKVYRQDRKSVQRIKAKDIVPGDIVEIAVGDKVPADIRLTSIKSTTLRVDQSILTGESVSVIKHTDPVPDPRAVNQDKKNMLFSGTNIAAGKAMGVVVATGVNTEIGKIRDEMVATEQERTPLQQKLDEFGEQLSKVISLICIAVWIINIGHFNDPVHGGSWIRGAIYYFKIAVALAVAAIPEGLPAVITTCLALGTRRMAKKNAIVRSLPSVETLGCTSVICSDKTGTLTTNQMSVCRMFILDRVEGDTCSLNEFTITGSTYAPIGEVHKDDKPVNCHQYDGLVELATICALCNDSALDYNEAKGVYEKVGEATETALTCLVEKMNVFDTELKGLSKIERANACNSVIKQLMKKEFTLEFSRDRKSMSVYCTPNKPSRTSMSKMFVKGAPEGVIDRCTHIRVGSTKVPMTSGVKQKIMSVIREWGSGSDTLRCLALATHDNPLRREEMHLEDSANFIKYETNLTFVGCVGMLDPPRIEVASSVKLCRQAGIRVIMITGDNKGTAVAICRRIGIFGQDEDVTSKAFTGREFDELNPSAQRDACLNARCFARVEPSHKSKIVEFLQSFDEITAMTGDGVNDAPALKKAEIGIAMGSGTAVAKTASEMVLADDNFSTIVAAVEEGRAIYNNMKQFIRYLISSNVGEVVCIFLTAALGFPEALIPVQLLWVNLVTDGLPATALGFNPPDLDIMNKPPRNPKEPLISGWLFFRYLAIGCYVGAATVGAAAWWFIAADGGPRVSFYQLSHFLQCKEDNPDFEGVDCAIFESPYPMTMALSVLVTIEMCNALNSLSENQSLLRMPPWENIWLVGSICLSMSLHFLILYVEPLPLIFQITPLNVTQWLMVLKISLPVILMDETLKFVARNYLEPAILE

[3] = cited from earlier work
[4] = tested on: isolated rat heart [Isolated Rat Heart]; conditions: pharmacological studies; cited from earlier work
[5] = Pharmacokinetics in Sprague-Dawley rats (plasma, HPLC); assay type: in vivo; conditions: SD rat; for AUC / half-life: gavage and tail vein dosing
[6] = 10 mg/kg, low dose (doses 10, 20, 40 mg·kg-1), route not given
[7] = 20 mg/kg, middle dose (doses 10, 20, 40 mg·kg-1), route not given
[8] = high dose (doses 10, 20, 40 mg·kg-1), route not given

Cc1nc(C(=O)O)c(C)nc1C(=O)O [3,6-二甲基-2,5-吡嗪二甲酸]
activity [1]: 明显下降

COCc1nc(C)c(COC)nc1C [2,5-二甲氧甲基-3,6-二甲基吡嗪]
arrhythmia [1]: 会导致心律失常

Cc1nc(CO)c(C)nc1CO [liguzinediol, 2,5-二羟甲基-3,6-二甲基吡嗪]
mechanism of positive inotropic effect [2]: 通过作用于心肌细胞内的SERCA2a靶点而发挥正性肌力作用 | half-life ([3]; in animals): 1.6 h | metabolic rate ([3]; in animals): 相对较快 | glucuronide conjugate formation ([3]; in vivo): 很快地形成了葡萄糖醛酸结合物而排出体外 | oxidation of hydroxymethyl and side-chain methyl ([3]; in vivo): 容易被氧化成极性和水溶性较大的化合物而排出体外 | arrhythmia side effect [4]: 没有心律失常副作用 | positive inotropic effect [4]: 明显的正性肌力作用

CCOCc1nc(C)c(COCC)nc1C [2,5-二乙氧甲基-3,6-二甲基吡嗪]
arrhythmia [1]: 会导致心律失常

CCC(O)c1nc(C)c(C(O)CC)nc1C (stereo not drawn) [化合物2, 2,5-二-(1-羟基丙基)-3,6-二甲基吡嗪]
AUC [5, 6]: 34000 ng·h/mL | half-life [5, 6]: 3.7 h | AUC [5, 7]: 70000 ng·h/mL | half-life [5, 7]: 3.6 h | AUC [5, 8]: 135000 ng·h/mL | half-life [5, 8]: 3.5 h | clearance ([5]; low, middle and high doses, route not given): ~5 mL/min/kg | bioavailability ([5]; po, gavage and tail vein injection, 10, 20, 40 mg·kg-1): 90%
